Laboratory results: patent US9499550B2 (BRISTOL-MYERS SQUIBB COMPANY, priority 2012, dated 2016)
Where two headings read alike, the source gives them in different places.

Key:
[1] = tested on: HCV genotype 1a (H77 strain) replicon in HUH-7 cells; assay: HCV replicon luciferase reporter assay, genotype 1a; assay type: cell-based; conditions: Hepatitis C virus, Huh-7, 72 h, 3 days incubation
Method in brief: (§1)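 Replicon inhibition for both genotypes was measured as Renilla luciferase signal (EnduRen, 7.5 μM final, 2 h) after 3-day, 37° C exposure of replicon-bearing HUH-7 cells in 4% FCS DMEM, 0.5% DMSO. The 1b construct carries S1179I; the 1a H77 construct carries P1496L and S2204I. Twenty-point, 3-fold dilutions were fitted four-parametrically for EC50, and CC50 was taken from multiplexed Cell Titer-Blue.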

[2] = tested on: HCV genotype 1b (Con1) replicon in HUH-7 cells; assay: HCV replicon luciferase reporter assay, genotype 1b; assay type: cell-based; conditions: Hepatitis C virus, Huh-7, 72 h, 3 days incubation
Method in brief: as §1

[3] = HCV genotype 1a replicon luciferase, read-out: LE_1a (EC50, range)
[4] = HCV genotype 1b replicon luciferase, read-out: LE_1b (EC50, range)
[5] = GETYPE1A, HCV genotype 1a replicon luciferase, read-out: LE_1a (EC50, range)
[6] = GETYPE1B, HCV genotype 1b replicon luciferase, read-out: LE_1b (EC50, range)
[7] = HCV genotype 1a replicon luciferase assay, range class, read-out: LE_1a (EC50, range)
[8] = HCV genotype 1b replicon luciferase assay, range class, read-out: LE_1b (EC50, range)

Question: For `COc1cc2ccnc(O[C@@H]3C[C@H]4C(=O)N[C@]5(C(=O)NS(=O)(=O)C6(CF)CC6)C[C@H]5/C=C\CC[C@@H](C)C[C@@H](C)[C@H](NC(=O)C5(C(F)(F)F)CC5)C(=O)N4C3)c2cc1F` [Compound 4090, (2R,6S,7R,9R,13aS,14aR,16aS,Z)-2-(7-fluoro-6-methoxyisoquinolin-1-yloxy)-N-(1-(fluoromethyl)cyclopropylsulfonyl)-7,9-dimethyl-5,16-dioxo-6-(1-(trifluoromethyl)cyclopropanecarboxamido)-1,2,3,5,6,7,8,9,10,11,13a,14,14a,15,16,16a-hexadecahydrocyclopropa[e]pyrrolo[1,2-a][1,4]diazacyclopentadecine-14a-carboxamide], which EC50 [1, 3] is on record?
Answer: Its EC50 is less than 5.46 nM.

Question: And the EC50 [2, 4]?
Answer: Its EC50 is less than 5.46 nM.

Question: How did the EC50 [1, 3] turn out when `CCOc1ccc2c(O[C@@H]3C[C@H]4C(=O)N[C@]5(C(=O)NS(=O)(=O)C6(C)CC6)C[C@H]5/C=C\CC[C@@H](C)C[C@@H](C)[C@H](NC(=O)OCC5(C)CC5)C(=O)N4C3)nccc2c1` [Compound 5140, (1-methylcyclopropyl)methyl ((2R,6S,7R,9R,13aS,14aR,16aS,Z)-2-((6-ethoxyisoquinolin-1-yl)oxy)-7,9-dimethyl-14a-(((1-methylcyclopropyl)sulfonyl)carbamoyl)-5,16-dioxo-1,2,3,5,6,7,8,9,10,11,13a,14,14a,15,16,16a-hexadecahydrocyclopropa[e]pyrrolo[1,2-a][1,4]diazacyclopentadecin-6-yl)carbamate] was run?
Answer: Its EC50 is less than 5.46 nM.

Question: What about the EC50 [2, 4] of the same molecule?
Answer: The EC50 was less than 5.46 nM.

Question: How did the EC50 [1, 3] turn out when `CC[C@@H]1C[C@H](C)CC/C=C\[C@@H]2C[C@@]2(C(=O)NS(=O)(=O)C2(C)CC2)NC(=O)[C@@H]2C[C@@H](Oc3nc4cc(OC(C)C)ccc4nc3C(F)(F)F)CN2C(=O)[C@H]1NC(=O)OC(C)(C)C` [Compound 4362, tert-butyl ((2R,6S,7R,9R,13aS,14aR,16aS,Z)-7-ethyl-2-((7-isopropoxy-3-(trifluoromethyl)quinoxalin-2-yl)oxy)-9-methyl-14a-(((1-methylcyclopropyl)sulfonyl)carbamoyl)-5,16-dioxo-1,2,3,5,6,7,8,9,10,11,13a,14,14a,15,16,16a-hexadecahydrocyclopropa[e]pyrrolo[1,2-a][1,4]diazacyclopentadecin-6-yl)carbamate] was run?
Answer: Its EC50 is 1.01 to 5 nM.

Question: What about the EC50 [2, 4] of the same molecule?
Answer: Its EC50 is 0.51 to 1 nM.

Question: Which results are given for `COc1cc2c(OC)cnc(O[C@@H]3C[C@H]4C(=O)N[C@]5(C(=O)NS(=O)(=O)C6(CO)CC6)C[C@H]5/C=C\CC[C@@H](C)C[C@@H](C)[C@H](NC(=O)OC(C)(C)C(F)(F)F)C(=O)N4C3)c2cc1F` [Compound 4238]?
Answer: EC50 [1, 5]: 4.82 to 103 nM; EC50 [2, 6]: 4.82 to 103 nM

Question: Which EC50 [1, 5] does the source give for `CCOc1cnc(O[C@@H]2C[C@H]3C(=O)N[C@]4(C(=O)NS(=O)(=O)C5(C)CC5)C[C@H]4/C=C\CC[C@H](C)C[C@@H](C)[C@H](NC(=O)OC(C)(C)C(F)(F)F)C(=O)N3C2)c2ccc(OC)cc12` [Compound 4230] here?
Answer: Its EC50 is less than 5.46 nM.

Question: What about the EC50 [2, 6] of the same molecule?
Answer: The EC50 was less than 5.46 nM.

Question: `COc1ccc2c(O[C@@H]3C[C@H]4C(=O)N[C@]5(C(=O)NS(=O)(=O)C6(CF)CC6)C[C@H]5/C=C\CC[C@@H](C)C[C@@H](C)[C@H](NC(=O)OC(C)(C)C(F)(F)F)C(=O)N4C3)ncc(N3CCOCC3)c2c1` [Compound 4120] was tested. Which EC50 [1, 3] did it give?
Answer: The EC50 was less than 5.46 nM.

Question: And the EC50 [2, 4]?
Answer: The EC50 was less than 5.46 nM.

Question: What does the source list for `COc1ccc2c(O[C@@H]3C[C@H]4C(=O)N[C@]5(C(=O)NS(=O)(=O)C6(C)CC6)C[C@H]5/C=C\CC[C@H](C)C[C@@H](C)[C@H](NC(=O)OC(C)(C)C)C(=O)N4C3)nc(-c3ccc(F)cc3)cc2c1` [Compound 3081, tert-butyl ((2R,6S,7R,9S,13aS,14aR,16aS,Z)-2-((3-(4-fluorophenyl)-6-methoxyisoquinolin-1-yl)oxy)-7,9-dimethyl-14a-(((1-methylcyclopropyl)sulfonyl)carbamoyl)-5,16-dioxo-1,2,3,5,6,7,8,9,10,11,13a,14,14a,15,16,16a-hexadecahydrocyclopropa[e]pyrrolo[1,2-a][1,4]diazacyclopentadecin-6-yl)carbamate]?
Answer: EC50 [1, 7]: 4.82 to 103 nM; EC50 [2, 8]: < 5.46 nM

Question: For `CCOc1ccc2ncc(O[C@@H]3C[C@H]4C(=O)N[C@]5(C(=O)NS(=O)(=O)C6(CF)CC6)C[C@H]5/C=C\CC[C@@H](C)C[C@@H](C)[C@H](NC(=O)OC(C)(C)C(F)(F)F)C(=O)N4C3)cc2c1` [Compound 4296], which EC50 ([1]; GETYPE1A, HCV genotype 1a replicon luciferase, read-out: LE_1a (EC50)) is on record?
Answer: Its EC50 is 11.9 nM.

Question: What about the EC50 [1, 5] of the same molecule?
Answer: The EC50 was 5.01 to 35 nM.

Question: And the EC50 ([2]; GETYPE1B, HCV genotype 1b replicon luciferase, read-out: LE_1b (EC50))?
Answer: The EC50 was 5.46 nM.

Question: What about the EC50 [2, 6] of the same molecule?
Answer: The EC50 was 5.01 to 35 nM.

Question: For `CCOc1ccc2c(O[C@@H]3C[C@H]4C(=O)N[C@]5(C(=O)NS(=O)(=O)C6(C)CC6)C[C@H]5/C=C\CC[C@H](C)C[C@@H](C)[C@H](NC(=O)NC(C)(C)C(F)(F)F)C(=O)N4C3)nccc2c1` [Compound 5143, (2R,6S,7R,9S,13aS,14aR,16aS,Z)-2-((6-ethoxyisoquinolin-1-yl)oxy)-7,9-dimethyl-N-((1-methylcyclopropyl)sulfonyl)-5,16-dioxo-6-(3-(1,1,1-trifluoro-2-methylpropan-2-yl)ureido)-1,2,3,5,6,7,8,9,10,11,13a,14,14a,15,16,16a-hexadecahydrocyclopropa[e]pyrrolo[1,2-a][1,4]diazacyclopentadecine-14a-carboxamide], which EC50 [1, 3] is on record?
Answer: The EC50 was 4.82 to 103 nM.

Question: And the EC50 [2, 4]?
Answer: Its EC50 is less than 5.46 nM.

Question: For `CCOc1nnc(O[C@@H]2C[C@H]3C(=O)N[C@]4(C(=O)NS(=O)(=O)C5(C)CC5)C[C@H]4/C=C\CC[C@H](C)C[C@@H](CC)[C@H](NC(=O)OC(C)(C)C)C(=O)N3C2)c2ccccc12` [Compound 5046, tert-butyl ((2R,6S,7R,9S,13aS,14aR,16aS,Z)-2-((4-ethoxyphthalazin-1-yl)oxy)-7-ethyl-9-methyl-14a-(((1-methylcyclopropyl)sulfonyl)carbamoyl)-5,16-dioxo-1,2,3,5,6,7,8,9,10,11,13a,14,14a,15,16,16a-hexadecahydrocyclopropa[e]pyrrolo[1,2-a][1,4]diazacyclopentadecin-6-yl)carbamate], which EC50 [1, 3] is on record?
Answer: The EC50 was 4.82 to 103 nM.

Question: What about the EC50 [2, 4] of the same molecule?
Answer: The EC50 was less than 5.46 nM.

Question: For `CC[C@@H]1C[C@@H](C)CC/C=C\[C@@H]2C[C@@]2(C(=O)NS(=O)(=O)C2(CO)CC2)NC(=O)[C@@H]2C[C@@H](Oc3nccc4cc(OC)c(F)cc34)CN2C(=O)[C@H]1NC(=O)OC(C)(C)C(F)(F)F` [Compound 4326], which EC50 [1, 5] is on record?
Answer: The EC50 was 35 to 620 nM.

Question: And the EC50 [2, 6]?
Answer: Its EC50 is 35 to 620 nM.

Question: With `CC[C@@H]1C[C@@H](C)CC/C=C\[C@@H]2C[C@@]2(C(=O)NS(=O)(=O)C2(C)CC2)NC(=O)[C@@H]2C[C@@H](Oc3nccc4c(OC)cccc34)CN2C(=O)[C@H]1NC(=O)OC(C)(C)C(F)(F)F` [Compound 3027, 1,1,1-trifluoro-2-methylpropan-2-yl((2R,6S,7R,9S,13aS,14aR,16aS,Z)-7-ethyl-2-((5-methoxyisoquinolin-1-yl)oxy)-9-methyl-14a-(((1-methylcyclopropyl)sulfonyl)carbamoyl)-5,16-dioxo-1,2,3,5,6,7,8,9,10,11,13a,14,14a,15,16,16a-hexadecahydrocyclopropa[e]pyrrolo[1,2-a][1,4]diazacyclopentadecin-6-yl)carbamate] as the molecule, how does the EC50 [1, 7] read?
Answer: Its EC50 is 4.82 to 103 nM.

Question: And the EC50 [2, 8]?
Answer: The EC50 was 4.82 to 103 nM.

Question: `CCCOc1cc2c(Cl)cccc2c(O[C@@H]2C[C@H]3C(=O)N[C@]4(C(=O)NS(=O)(=O)C5(C)CC5)C[C@H]4/C=C\CC[C@H](C)C[C@@H](C)[C@H](NC(=O)OC(C)(C)C(F)(F)F)C(=O)N3C2)n1` [Compound 1077, 1,1,1-trifluoro-2-methylpropan-2-yl((2R,6S,7R,9S,13aS,14aR,16aS,Z)-2-((5-chloro-3-propoxyisoquinolin-1-yl)oxy)-7,9-dimethyl-14a-(((1-methylcyclopropyl)sulfonyl)carbamoyl)-5,16-dioxo-1,2,3,5,6,7,8,9,10,11,13a,14,14a,15,16,16a-hexadecahydrocyclopropa[e]pyrrolo[1,2-a][1,4]diazacyclopentadecin-6-yl)carbamate] was tested. Which EC50 [1, 7] did it give?
Answer: The EC50 was 4.82 to 103 nM.

Question: And the EC50 [2, 8]?
Answer: The EC50 was less than 5.46 nM.

Question: What does the source list for `C[C@@H]1CC/C=C\[C@@H]2C[C@@]2(C(=O)NS(=O)(=O)C2CC2)NC(=O)[C@@H]2C[C@@H](Oc3nccc4c5c(ccc34)OC(F)(F)O5)CN2C(=O)[C@@H](NC(=O)OCC2(C)CC2)[C@H](C)C1` [Compound 5272, (1-methylcyclopropyl)methyl ((2R,6S,7R,9R,13aS,14aR,16aS,Z)-14a-((cyclopropylsulfonyl)carbamoyl)-2-((2,2-difluoro-[1,3]dioxolo[4,5-f]isoquinolin-6-yl)oxy)-7,9-dimethyl-5,16-dioxo-1,2,3,5,6,7,8,9,10,11,13a,14,14a,15,16,16a-hexadecahydrocyclopropa[e]pyrrolo[1,2-a][1,4]diazacyclopentadecin-6-yl)carbamate]?
Answer: EC50 [1, 3]: < 5.46 nM; EC50 [2, 4]: < 5.46 nM

Question: What does the source list for `CC[C@@H]1C[C@H](C)CC/C=C\[C@@H]2C[C@@]2(C(=O)NS(=O)(=O)C2(C)CC2)NC(=O)[C@@H]2C[C@@H](Oc3ncc(C(N)=O)c4cc(OC)ccc34)CN2C(=O)[C@H]1NC(=O)OC(C)(C)C` [Compound 4343, tert-butyl ((2R,6S,7R,9R,13aS,14aR,16aS,Z)-2-((4-carbamoyl-6-methoxyisoquinolin-1-yl)oxy)-7-ethyl-9-methyl-14a-(((1-methylcyclopropyl)sulfonyl)carbamoyl)-5,16-dioxo-1,2,3,5,6,7,8,9,10,11,13a,14,14a,15,16,16a-hexadecahydrocyclopropa[e]pyrrolo[1,2-a][1,4]diazacyclopentadecin-6-yl)carbamate]?
Answer: EC50 [1, 3]: 5.01 to 35 nM; EC50 [2, 4]: 5.01 to 35 nM
